According to publication PMC10673308, “Unusual Oligomeric Laccase-like Oxidases from Ascomycete Curvularia geniculata VKM F-3561 Polymerizing Phenylpropanoids and Phenolic Compounds under Neutral Environmental Conditions” (Microorganisms, 2023):

Tests used:
[1] = system: T1, oxidase II (laccase-like oxidase II of C. geniculata VKM F-3561); assay: spectrophotometric oxidation assay; assay type: biochemical, Curvularia geniculata; conditions: apparent, error < 10%
T1 construct: native, purified from culture liquid; glycosylated oligomer about 870 kDa, subunit about 63 kDa deglycosylated
Text: spectrophotometric oxidation assay on oxidase II (laccase-like oxidase II of C. geniculata VKM F-3561)

[2] = system: T2, oxidase I (laccase-like oxidase I of C. geniculata VKM F-3561); assay: spectrophotometric oxidation assay; assay type: biochemical, Curvularia geniculata; conditions: apparent, error < 10%
T2 construct: native, purified from culture liquid; glycosylated oligomer about 1035 kDa, subunit about 63 kDa deglycosylated
Text: spectrophotometric oxidation assay on oxidase I (laccase-like oxidase I of C. geniculata VKM F-3561)

Row | SMILES | Km ([1]; 50 mM Tris-HCl buffer pH 7.2) | Km ([2]; 50 mM Tris-HCl buffer pH 7.2) | Km ([1]; 20 mM Na-acetate buffer pH 5.0) | Km ([2]; 20 mM Na-acetate buffer pH 5.0)
1 | COc1cc(C=NN=Cc2cc(OC)c(O)c(OC)c2)cc(OC)c1O [syringaldazine, 4-hydroxy-3,5-dimethoxybenzaldehyde azine] | 46 µM | 2.3 µM |  | 
2 | COc1cc(/C=C/C(=O)O)ccc1O [ferulic acid] | 51 µM | 37.6 µM |  | 
3 | CCn1c(=NN=c2sc3cc(S(=O)(=O)O)ccc3n2CC)sc2cc(S(=O)(=O)O)ccc21 [ABTS, 2,2′-azino-bis(3-ethylbenzothiazoline 6-sulfonic acid)] |  |  | 152 µM | 280 µM
4 | COc1cccc(OC)c1O [2,6-dimethoxyphenol] | 108 µM | 26 µM |  | 
5 | COc1cc(/C=C/CO)ccc1O [coniferyl alcohol] | 125 µM | 130 µM |  | 
